Drawing on the kinase profiling compilation of Christmann-Franck et al. (2016), this text covers residual activity for one compound.

The structures appear in SMILES notation.

This assay concerns the target CHEK1 (human) (UniProt O14757). Description: radiometric filter-binding kinase assay. Particulars: ATP 20 µM.

As a reminder, the residual activity is the share of the control activity or signal that is left under treatment.

Sequence of CHEK1 (human) (O14757 whole entry, looked up): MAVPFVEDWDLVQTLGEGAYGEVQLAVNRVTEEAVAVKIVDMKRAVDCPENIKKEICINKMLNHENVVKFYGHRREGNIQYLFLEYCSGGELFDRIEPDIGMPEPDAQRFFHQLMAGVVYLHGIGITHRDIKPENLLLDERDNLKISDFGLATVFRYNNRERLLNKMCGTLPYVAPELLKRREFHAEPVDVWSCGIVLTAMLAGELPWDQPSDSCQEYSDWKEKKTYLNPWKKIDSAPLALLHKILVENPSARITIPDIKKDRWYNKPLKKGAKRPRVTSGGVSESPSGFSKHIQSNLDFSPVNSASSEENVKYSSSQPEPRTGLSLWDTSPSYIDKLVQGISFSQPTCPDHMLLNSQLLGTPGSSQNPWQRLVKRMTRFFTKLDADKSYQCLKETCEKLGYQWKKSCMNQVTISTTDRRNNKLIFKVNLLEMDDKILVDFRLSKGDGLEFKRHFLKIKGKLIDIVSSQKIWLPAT

On to `CCc1cncnc1N1CCN(Cc2nc3cc(C(F)(F)F)ccc3[nH]2)CC1`, for which the residual activity runs as follows: (compound 0.1 µM) 90%; (compound 1.0 µM) 83%; (compound 10.0 µM) 83%.
